Source: patent US5869500A, “Pyridone compounds useful in treating Alzheimer's disease” (Hoffmann-La Roche Inc., priority 1996, dated 1999)

Columns and labels:
[1] = test system: Aβ production in HEK cells over-expressing mutated β-APP (SFAD); assay: Aβ production inhibition, sandwich-ELISA in HEK cells, over-expressed mutated β-APP (SE-SFAD); format: cell-based, human; conditions: for IC50: based on the respective plateau of maximum inhibition; for Emax: read-out: SE-SFAD max. inhibition %
Procedure, shortened: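 HEK cells expressing recombinant human wild-type or mutated (SFAD) β-APP treated with compound for 24 to 48 hours at 37° C, 10% CO2. IC50 based on plateau of maximum inhibition.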

[2] = test system: Aβ production in HEK cells over-expressing Wild type β-APP; assay: Aβ production inhibition, sandwich-ELISA in HEK cells which over-express Wild type β-APP (SE-WT); format: cell-based, human; conditions: for Emax: HEK293, maximum inhibition plateau, read-out: SE-WT max. inhibition %
Procedure: The effect of test substances on the inhibition of Aβ-amyloid production can be measured in the supernatant of cell cultures of β-APP expressed cells using ELISA tests or other quantitative determination methods for β-APP degradation products. Typically, 8×10^5 cells (e.g. HEK cells, which express recombinant human β-APP variants) are plated out in each well of a culture dish having 24 wells in growth media such as e.g. OPTIMEM (Gibco) and the test compound is then added. After an incubation period of 24 to 48 hours at 37° C. in a 10% CO2 atmosphere the supernatant is removed from the cell cultures and the β-APP degradation products (e.g. Aβ or β-[…]) are determined with the aid of ELISA (or sandwich ELISA) analysis or by means of quantitative immunoprecipitation (after metabolic radiolabelling of the cell proteins). Typically, 300 μl of the cell supernatant are tested according to the state of the art for ELISA tests in culture dishes having 96 wells. In the case of sandwich ELISA for Aβ, the binding antibody can be directed against the first 16 amino acids of Aβ-peptide (e.g. 6E10 Senetek, Maryland Heights, Mo.) and the detection antibody can be directed against amino acids 17-40 or 17-42 of Aβ and carries a detection system such as e.g. peroxidase. A simple ELISA test with an antibody, e.g. 22C11 (Boehringer Mannheim), can be used as the test for […]; the second antibody can be an anti-(mouse) Ig having a detection system, such as e.g. peroxidase. The peroxidase reaction can be carried out e.g. using a TMB substrate (BioRAD) and the measurements can be carried out at 650 nm using an ELISA reading apparatus. […] SE-SFAD signifies the Aβ production inhibition measured using sandwich-ELISA in HEK cells, SFAD signifies over-expressed mutated β-APP, and SE-WT signifies the Aβ production inhibition measured using sandwich-ELISA in HEK cells which over-express Wild type β-APP. The IC50 values are based on the respective plateau of maximum inhibition.

[3] = Homo sapiens, HEK293, HEK cells
[4] = Homo sapiens, HEK293, HEK cells, maximum inhibition plateau
[5] = Homo sapiens, HEK293, based on the respective plateau of maximum inhibition

Compound | IC50 [1, 3] [µM] | Emax [1, 4] [%] | IC50 [2, 5] [µM] | Emax ([2]; Homo sapiens) [%] | IC50 ([1]; HEK cells) [µM] | SE-SFAD max. inhibition % ([1]; HEK cells, maximum inhibition plateau) [%] | IC50 ([2]; based on the respective plateau of maximum inhibition) [µM] | SE-WT max. inhibition % ([2]; maximum inhibition plateau)
CON(C)C(=O)c1cc(-c2ccccc2)c(=O)n2ccc3ccsc3c12 [Compound 54, 7--Oxo-8-phenyl-7H-thieno[2,3-a]quinolizine-10-carboxylic acid methoxy-methyl-amide] | 6 | 30 | 3 | 40 | – | – | – | –
COCCN(CCOC)C(=O)c1cc(-c2ccccc2)c(=O)n2ccc3ccsc3c12 [Compound 22, 7-Oxo-8-phenyl-7H-thieno[2,3-a]quinolizine-10-carboxylic acid bis-(2-methoxy-ethyl)-amide] | 2 | 80 | 2.5 | 80 | – | – | – | –
O=C(OCC#CCN1CCCC1)c1cc(-c2ccccc2)c(=O)n2ccc3ccsc3c12 [Compound 47, 4-(Pyrrolidin-1-yl)-but-2-ynyl 7-oxo-8-phenyl-7H-thieno[2,3-a]-quinolizine-10-carboxylate methanesulphonate] | 5 | 55 | 1.5 | 55 | – | – | – | –
COC[C@H]1CCCN1C(=O)c1cc(-c2ccccc2)c(=O)n2ccc3ccc(Cl)cc3c12 [Compound 38, 10-Chloro-1-(2-(R)methoxymethyl-pyrrolidine-1-carbonyl)-3-phenyl-pyrido [2,1-a]isoquinolin-4-one] | 7 | 100 | 1.5 | 70 | – | – | – | –
CN(CC1CCCO1)C(=O)c1cc(-c2ccccc2)c(=O)n2ccc3ccsc3c12 (stereo not drawn) [Compound 24, 7-Oxo-8-phenyl-7H-thieno[2,3-a]quinolizine-10-carboxylic acid methyl-(tetrahydrofuran-2-yl-methyl)-amide] | 7 | 40 | 10 | 60 | – | – | – | –
COC1CCCN(C(=O)c2cc(-c3ccccc3)c(=O)n3ccc4ccsc4c23)C1 (stereo not drawn) [Compound 14, 10-(3-Methoxy-piperidine-1-carbonyl)-8-phenyl-thieno[2,3-a]-quinolizine-7-on] | 2.3 | 50 | 8 | 70 | – | – | – | –
COC1CCN(C(=O)c2cc(-c3ccccc3)c(=O)n3ccc4ccc(Cl)cc4c23)C1 (stereo not drawn) [Compound 41, 10-Chloro-1-(3-methoxy-pyrrolidine-1-carbonyl)-3-phenyl-pyrido [2,1-a]isoquinolin-4-one] | 6 | 100 | 3.5 | 75 | – | – | – | –
COCC1CCCCN1C(=O)c1cc(-c2ccccc2)c(=O)n2ccc3ccsc3c12 (stereo not drawn) [Compound 50, 10-(2-Methoxymethyl-piperidine-1-carbonyl)-8-phenyl-thieno[2,3-a]-quinolizin-7-one] | 5.5 | 40 | 3.6 | 40 | – | – | – | –
8-(2-Benzoylamino-phenyl)-7-oxo-8-p-tolyl-7H-thieno[2,3-a]-quinolizine-10- carboxylic acid (2-methoxy-ethyl)-phenyl-amide [Compound 152] | – | – | – | – | 1.4 | 100 | 1.5 | 50-90%
COCC1CC(OC)CN1C(=O)c1cc(-c2ccccc2)c(=O)n2ccc3ccsc3c12 (stereo not drawn) [Compound 8, 10-(4-Methoxy-2-methoxymethyl-pyrrolidine-1-carbonyl)-8-phenylthieno[2,3-a]quinolizin-7-one] | 1 | 35 | 12 | 25 | – | – | – | –
O=C(OCC#CCN1CCOCC1)c1cc(-c2ccccc2)c(=O)n2ccc3ccsc3c12 [Compound 46, 4-(Morpholin-4-yl)-but-2-ynyl 7-oxo-8-phenyl-7H-thieno[2,3-a]-quinolizine-10-carboxylate] | 4 | 70 | 1 | 50 | – | – | – | –
CCCN(CCOC)C(=O)c1cc(-c2ccc(C(C)(C)C)cc2)c(=O)n2ccc3ccsc3c12 [Compound 108, 8-(4-tert-Butyl-phenyl)-7-oxo-7H-thieno[2,3-a]quinolizine-10-carboxylicacid (2-methoxy-ethyl)-propyl-amide] | 1.4 | 100 | 1 | 100 | – | – | – | –
